# Source: patent publication US20190048016A1, “SUBSTITUTED BRIDGED UREA ANALOGS AS SIRTUIN MODULATORS” (GlaxoSmithKline Intellectual Property(No.2)Limited, priority 2014, published 2019)
# Biological target: T1, SIRT1 (Homo sapiens, UniProt Q96EB6)
# T1 sequence (Q96EB6 1-747): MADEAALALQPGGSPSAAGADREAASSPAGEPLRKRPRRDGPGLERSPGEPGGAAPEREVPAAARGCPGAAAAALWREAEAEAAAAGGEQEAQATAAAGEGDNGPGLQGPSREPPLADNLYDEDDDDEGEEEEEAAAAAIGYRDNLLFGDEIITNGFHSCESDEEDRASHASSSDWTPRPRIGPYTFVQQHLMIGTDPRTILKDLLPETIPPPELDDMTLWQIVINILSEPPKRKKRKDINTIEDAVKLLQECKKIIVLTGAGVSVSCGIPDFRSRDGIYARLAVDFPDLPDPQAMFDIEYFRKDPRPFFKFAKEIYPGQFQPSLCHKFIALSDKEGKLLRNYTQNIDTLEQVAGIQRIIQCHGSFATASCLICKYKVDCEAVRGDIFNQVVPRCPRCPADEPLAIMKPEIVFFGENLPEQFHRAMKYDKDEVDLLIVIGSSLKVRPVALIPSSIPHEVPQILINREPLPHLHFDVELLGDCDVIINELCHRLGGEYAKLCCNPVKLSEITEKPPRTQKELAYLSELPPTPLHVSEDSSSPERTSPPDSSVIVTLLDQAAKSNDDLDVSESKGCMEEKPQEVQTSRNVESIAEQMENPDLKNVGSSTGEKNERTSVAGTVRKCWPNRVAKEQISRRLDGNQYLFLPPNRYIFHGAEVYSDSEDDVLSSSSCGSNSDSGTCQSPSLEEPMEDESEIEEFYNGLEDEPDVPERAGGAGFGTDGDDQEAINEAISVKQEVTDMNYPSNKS
# Test: Trp mass spectrometry assay of SIRT1 activation (deacetylation of Ac-R-H-K-K(Ac)-W-NH2 peptide, OAADPR formation)
# Format: biochemical
# Details: Trp peptide 0.5 μM, 120 μM βNAD+, 10 nM SIRT1, 25 min, 25° C.; for Emax: 25 min, read-out: TRP MAX RESP (percent maximum fold activation relative to control = 100%)
# In short: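 10 nM His-tagged SIRT1 (E. coli expressed) with 0.5 μM Ac-RHKK(Ac)W-NH2 and 120 μM βNAD+, 25 min at 25° C, HEPES pH 7.5, […]; formic acid stop. OAADPR or deacetylated peptide measured by mass spectrometry; EC1.5 = concentration giving 150% activity versus DMSO control; maximum activation also reported.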
SMILES,Emax [%],"TRP Activity (EC1.5, concentration of compound required to increase SIRT1 activity by 50% over control)"
"Cc1ncc(-c2ccnc(NC(=O)N3c4nc(C(=O)N[C@H](C)C(F)(F)F)c(Cl)cc4N4CCC[C@H]3C4)c2)o1 [Example 51, (9S)-3-chloro-N10-(4-(2-methyloxazol-5-yl)pyridin-2-yl)-N2-((R)-1,1,1-trifluoropropan-2-yl)-8,9-dihydro-6H-5,9-methanopyrido[2,3-b][1,4]diazocine-2,10(7H)-dicarboxamide]",≥ 150,A (EC1.5<1 μM)
"O=C(Nc1cccnc1)N1c2nc(N3CCCC(C(F)(F)F)C3)ccc2N2CCC[C@H]1C2 (single isomer, unassigned) [Example 25]",≥ 150,A (EC1.5<1 μM)
"Cc1cc(-c2ccc3c(n2)N(C(=O)Nc2cccnn2)[C@H]2CCCN3C2)ccn1 [Example 14, (9S)-2-(2-methylpyridin-4-yl)-N-(pyridazin-3-yl)-8,9-dihydro-6H-5,9-methanopyrido[2,3-b][1,4]diazocine-10(7H)-carboxamide]",≥ 150,A (EC1.5<1 μM)
"C[C@@H](NC(=O)c1ccc2c(n1)N(C(=O)Nc1cc(OC[C@H](O)CO)ccn1)[C@H]1CCCN2C1)C(F)(F)F [Example 34, (9S)-N10-(4-((R)-2,3-dihydroxypropoxy)pyridin-2-yl)-N2-((R)-1,1,1-trifluoropropan-2-yl)-8,9-dihydro-6H-5,9-methanopyrido[2,3-b][1,4]diazocine-2,10(7H)-dicarboxamide]",≥ 150,A (EC1.5<1 μM)

# Results, then the molecule that gave them:
Emax [%],"TRP Activity (EC1.5, concentration of compound required to increase SIRT1 activity by 50% over control)",SMILES
≥ 150,A (EC1.5<1 μM),"O=C(Nc1cnc(OC[C@@H](O)CO)cn1)N1c2nc(-c3cccc(C(F)(F)F)c3)c(Cl)cc2N2CCC[C@H]1C2 [Example 77, (9S)-3-chloro-N-(5-((S)-2,3-dihydroxypropoxy)pyrazin-2-yl)-2-(3-(trifluoromethyl)phenyl)-8,9-dihydro-6H-5,9-methanopyrido[2,3-b][1,4]diazocine-10(7H)-carboxamide]"
–,A (EC1.5<1 μM),"O=C(NC1CC1(F)F)c1ccc2c(n1)N(C(=O)Nc1cc(OC[C@H](O)CO)ccn1)[C@H]1CCCN2C1 (single isomer, unassigned) [Example 52]"
